# In patent publication US20260284018A1, “DUAL INHIBITORS OF DYRK1A AND 5-HT2 FOR TREATING A BRAIN DISORDER” (THE REGENTS OF THE UNIVERSITY OF CALIFORNIA, priority 2023, published 2026):
# Key:
# Test in all cases: KINOMEscan scanEDGE
# Format in all cases: binding
# Conditions in all cases: read-out: Percent Control
# MAP3K4 = target: T1, MAP3K4 (Homo sapiens, UniProt Q9Y6R4)
# T1 construct: purchased Eurofins DiscoverX (KINOMEscan scanEDGE service)
# Description: (§1) Kinome Scan. Compound HTW_A_8 fumarate was screened against 97 kinases at a single concentration of 10 μM at Eurofins DiscoverX using their KINOMEscan™ scanEDGE assay. The results are reported as the % activity relative to DMSO control, where lower values indicate higher affinity. See Table 1 for the full kinome profile.
# KIT = target: T2, KIT (Homo sapiens, UniProt P10721)
# T2 construct: purchased Eurofins DiscoverX
# Description: as §1
# IKK-beta = target: T3, IKK-beta (Homo sapiens, UniProt O14920)
# T3 construct: purchased Eurofins DiscoverX
# Description: as §1
# PKAC-alpha = target: T4, PKAC-alpha (Homo sapiens, UniProt P17612)
# T4 construct: purchased Eurofins DiscoverX KINOMEscan scanEDGE
# Description: as §1
# ADCK3 = target: T5, ADCK3 (Homo sapiens, UniProt Q8NI60)
# T5 construct: purchased Eurofins DiscoverX
# Description: as §1
# ALK = target: T6, ALK (Homo sapiens, UniProt Q9UM73)
# T6 construct: purchased Eurofins DiscoverX
# Description: as §1
# YANK3 = target: T7, YANK3 (Homo sapiens, UniProt Q86UX6)
# T7 construct: purchased Eurofins DiscoverX KINOMEscan scanEDGE
# Description: as §1
# ERBB4 = target: T8, ERBB4 (Homo sapiens, UniProt Q15303)
# T8 construct: purchased Eurofins DiscoverX
# Description: as §1
# RIOK2 = target: T9, RIOK2 (Homo sapiens, UniProt Q9BVS4)
# T9 construct: purchased Eurofins DiscoverX KINOMEscan scanEDGE
# Description: as §1
# RET = target: T10, RET (Homo sapiens, UniProt P07949)
# T10 construct: purchased Eurofins DiscoverX KINOMEscan scanEDGE
# Description: as §1
# p38-alpha = target: T11, p38-alpha (Homo sapiens, UniProt Q16539)
# T11 construct: purchased Eurofins DiscoverX (KINOMEscan scanEDGE service)
# Description: as §1
# DYRK1B = target: T12, DYRK1B (Homo sapiens, UniProt Q9Y463)
# T12 construct: purchased Eurofins DiscoverX
# Description: as §1
# CDK3 = target: T13, CDK3 (Homo sapiens, UniProt Q00526)
# T13 construct: purchased Eurofins DiscoverX
# Description: as §1
# PAK4 = target: T14, PAK4 (Homo sapiens, UniProt O96013)
# T14 construct: purchased Eurofins DiscoverX (KINOMEscan scanEDGE service)
# Description: as §1
# CSF1R = target: T15, CSF1R (Homo sapiens, UniProt P07333)
# T15 construct: purchased Eurofins DiscoverX
# Description: as §1
# MAPKAPK2 = target: T16, MAPKAPK2 (Homo sapiens, UniProt P49137)
# T16 construct: purchased Eurofins DiscoverX (KINOMEscan scanEDGE service)
# Description: as §1
# BRAF(V600E) = target: T17, BRAF(V600E) (Homo sapiens, UniProt P15056, V600E)
# T17 construct: purchased Eurofins DiscoverX
# Description: as §1
# TRKA = target: T18, TRKA (Homo sapiens, UniProt P04629)
# T18 construct: purchased Eurofins DiscoverX KINOMEscan scanEDGE
# Description: as §1
# MET = target: T19, MET (Homo sapiens, UniProt P08581)
# T19 construct: purchased Eurofins DiscoverX (KINOMEscan scanEDGE service)
# Description: as §1
# PLK1 = target: T20, PLK1 (Homo sapiens, UniProt P53350)
# T20 construct: purchased Eurofins DiscoverX KINOMEscan scanEDGE
# Description: as §1
# MEK2 = target: T21, MEK2 (Homo sapiens, UniProt P36507)
# T21 construct: purchased Eurofins DiscoverX (KINOMEscan scanEDGE service)
# Description: as §1
# PDPK1 = target: T22, PDPK1 (Homo sapiens, UniProt O15530)
# T22 construct: purchased Eurofins DiscoverX (KINOMEscan scanEDGE service)
# Description: as §1
# PCTK1 = target: T23, PCTK1 (Homo sapiens, UniProt Q00536)
# T23 construct: purchased Eurofins DiscoverX (KINOMEscan scanEDGE service)
# Description: as §1
# PIK3C2B = target: T24, PIK3C2B (Homo sapiens, UniProt O00750)
# T24 construct: purchased Eurofins DiscoverX (KINOMEscan scanEDGE service)
# Description: as §1
# [1] = target: T25, TYK2(JH1domain-catalytic) (Homo sapiens, UniProt P29597)
# T25 construct: TYK2(JH1domain-catalytic); purchased Eurofins DiscoverX KINOMEscan scanEDGE
# Description: as §1
# PIK3CA = target: T26, PIK3CA (Homo sapiens, UniProt P42336)
# T26 construct: purchased Eurofins DiscoverX (KINOMEscan scanEDGE service)
# Description: as §1
# CDK7 = target: T27, CDK7 (Homo sapiens, UniProt P50613)
# T27 construct: purchased Eurofins DiscoverX
# Description: as §1
# SRC = target: T28, SRC (Homo sapiens, UniProt P12931)
# T28 construct: purchased Eurofins DiscoverX KINOMEscan scanEDGE
# Description: as §1
# FGFR3 = target: T29, FGFR3 (Homo sapiens, UniProt P22607)
# T29 construct: purchased Eurofins DiscoverX
# Description: as §1
# JNK1 = target: T30, JNK1 (Homo sapiens, UniProt P45983)
# T30 construct: purchased Eurofins DiscoverX
# Description: as §1
# [2] = target: T31, JAK2(JH1domain-catalytic) (Homo sapiens, UniProt O60674)
# T31 construct: JAK2(JH1domain-catalytic); purchased Eurofins DiscoverX
# Description: as §1
# IKK-alpha = target: T32, IKK-alpha (Homo sapiens, UniProt O15111)
# T32 construct: purchased Eurofins DiscoverX
# Description: as §1
# MKNK1 = target: T33, MKNK1 (Homo sapiens, UniProt Q9BUB5)
# T33 construct: purchased Eurofins DiscoverX (KINOMEscan scanEDGE service)
# Description: as §1
# EGFR = target: T34, EGFR (Homo sapiens, UniProt P00533)
# T34 construct: purchased Eurofins DiscoverX
# Description: as §1
# PLK3 = target: T35, PLK3 (Homo sapiens, UniProt Q9H4B4)
# T35 construct: purchased Eurofins DiscoverX KINOMEscan scanEDGE
# Description: as §1
# FGFR2 = target: T36, FGFR2 (Homo sapiens, UniProt P21802)
# T36 construct: purchased Eurofins DiscoverX
# Description: as §1
# CHEK1 = target: T37, CHEK1 (Homo sapiens, UniProt O14757)
# T37 construct: purchased Eurofins DiscoverX
# Description: as §1
# TIE2 = target: T38, TIE2 (Homo sapiens, UniProt Q02763)
# T38 construct: purchased Eurofins DiscoverX KINOMEscan scanEDGE
# Description: as §1
# T9 sequence (Q9BVS4 whole entry): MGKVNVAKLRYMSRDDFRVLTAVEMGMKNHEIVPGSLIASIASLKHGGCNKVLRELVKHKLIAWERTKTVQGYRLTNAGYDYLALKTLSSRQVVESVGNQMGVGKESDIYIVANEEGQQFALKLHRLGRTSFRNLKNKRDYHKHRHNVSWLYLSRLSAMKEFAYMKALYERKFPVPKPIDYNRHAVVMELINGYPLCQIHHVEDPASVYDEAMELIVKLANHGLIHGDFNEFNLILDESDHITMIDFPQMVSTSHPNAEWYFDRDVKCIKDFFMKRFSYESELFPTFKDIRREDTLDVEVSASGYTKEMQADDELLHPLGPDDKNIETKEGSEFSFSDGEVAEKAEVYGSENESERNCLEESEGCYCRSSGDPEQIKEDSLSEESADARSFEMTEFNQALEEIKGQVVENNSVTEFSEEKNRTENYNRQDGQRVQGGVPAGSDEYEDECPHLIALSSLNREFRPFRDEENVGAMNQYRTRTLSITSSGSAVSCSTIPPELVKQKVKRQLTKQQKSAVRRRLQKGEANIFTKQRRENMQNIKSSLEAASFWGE
# T30 sequence (P45983 whole entry): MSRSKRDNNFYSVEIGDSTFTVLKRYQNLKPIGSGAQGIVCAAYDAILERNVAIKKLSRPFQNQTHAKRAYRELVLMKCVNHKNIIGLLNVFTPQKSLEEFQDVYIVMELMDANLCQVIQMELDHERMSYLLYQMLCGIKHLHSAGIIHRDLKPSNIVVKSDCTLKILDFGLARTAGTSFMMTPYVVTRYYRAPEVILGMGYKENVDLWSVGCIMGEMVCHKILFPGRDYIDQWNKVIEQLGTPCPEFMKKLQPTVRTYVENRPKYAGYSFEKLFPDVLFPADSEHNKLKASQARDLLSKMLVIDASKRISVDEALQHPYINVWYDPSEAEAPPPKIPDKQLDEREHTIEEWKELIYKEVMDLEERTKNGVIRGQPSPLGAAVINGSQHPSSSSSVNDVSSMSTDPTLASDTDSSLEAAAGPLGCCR
# T6 sequence (Q9UM73 19-1620): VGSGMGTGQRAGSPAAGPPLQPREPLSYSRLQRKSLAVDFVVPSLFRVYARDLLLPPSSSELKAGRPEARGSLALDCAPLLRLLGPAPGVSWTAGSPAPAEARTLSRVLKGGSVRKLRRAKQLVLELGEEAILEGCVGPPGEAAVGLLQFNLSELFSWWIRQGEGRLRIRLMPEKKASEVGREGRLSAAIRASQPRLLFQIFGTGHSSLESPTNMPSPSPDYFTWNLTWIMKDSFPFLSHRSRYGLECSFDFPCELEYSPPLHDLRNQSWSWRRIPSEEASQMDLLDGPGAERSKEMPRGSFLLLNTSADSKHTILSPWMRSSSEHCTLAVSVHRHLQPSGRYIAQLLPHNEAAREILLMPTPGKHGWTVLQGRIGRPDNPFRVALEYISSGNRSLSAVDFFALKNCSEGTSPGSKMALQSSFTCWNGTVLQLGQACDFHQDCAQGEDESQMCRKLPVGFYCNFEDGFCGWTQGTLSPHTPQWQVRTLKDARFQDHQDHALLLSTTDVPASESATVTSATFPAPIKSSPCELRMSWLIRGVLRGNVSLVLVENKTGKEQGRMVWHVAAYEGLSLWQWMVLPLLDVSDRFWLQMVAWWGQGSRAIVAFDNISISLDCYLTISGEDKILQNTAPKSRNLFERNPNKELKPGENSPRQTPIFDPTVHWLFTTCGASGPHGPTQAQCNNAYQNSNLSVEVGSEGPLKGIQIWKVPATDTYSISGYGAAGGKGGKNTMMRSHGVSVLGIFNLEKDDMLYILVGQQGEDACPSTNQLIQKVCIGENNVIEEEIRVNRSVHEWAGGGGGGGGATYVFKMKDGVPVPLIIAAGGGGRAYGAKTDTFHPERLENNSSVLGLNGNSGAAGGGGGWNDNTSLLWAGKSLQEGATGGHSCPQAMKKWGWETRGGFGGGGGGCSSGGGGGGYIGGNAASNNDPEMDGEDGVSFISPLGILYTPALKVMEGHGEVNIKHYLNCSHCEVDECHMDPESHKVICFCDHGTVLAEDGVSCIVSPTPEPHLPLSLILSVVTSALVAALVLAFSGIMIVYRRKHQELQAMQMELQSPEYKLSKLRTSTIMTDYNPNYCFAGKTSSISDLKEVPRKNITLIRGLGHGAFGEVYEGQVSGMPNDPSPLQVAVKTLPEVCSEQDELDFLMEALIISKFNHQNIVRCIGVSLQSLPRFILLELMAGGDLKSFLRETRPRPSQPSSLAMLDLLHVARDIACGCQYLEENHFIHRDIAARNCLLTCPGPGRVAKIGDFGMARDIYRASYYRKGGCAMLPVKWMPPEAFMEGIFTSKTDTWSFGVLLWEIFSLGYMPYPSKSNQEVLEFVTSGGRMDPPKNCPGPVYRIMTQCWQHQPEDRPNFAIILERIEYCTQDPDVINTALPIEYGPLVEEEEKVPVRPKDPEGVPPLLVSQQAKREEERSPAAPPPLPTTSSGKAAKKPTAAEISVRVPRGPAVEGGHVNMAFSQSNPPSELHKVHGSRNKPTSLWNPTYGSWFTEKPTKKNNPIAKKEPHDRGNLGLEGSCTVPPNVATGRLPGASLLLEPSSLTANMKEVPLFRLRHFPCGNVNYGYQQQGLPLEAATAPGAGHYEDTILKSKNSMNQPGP
# T28 sequence (P12931 whole entry): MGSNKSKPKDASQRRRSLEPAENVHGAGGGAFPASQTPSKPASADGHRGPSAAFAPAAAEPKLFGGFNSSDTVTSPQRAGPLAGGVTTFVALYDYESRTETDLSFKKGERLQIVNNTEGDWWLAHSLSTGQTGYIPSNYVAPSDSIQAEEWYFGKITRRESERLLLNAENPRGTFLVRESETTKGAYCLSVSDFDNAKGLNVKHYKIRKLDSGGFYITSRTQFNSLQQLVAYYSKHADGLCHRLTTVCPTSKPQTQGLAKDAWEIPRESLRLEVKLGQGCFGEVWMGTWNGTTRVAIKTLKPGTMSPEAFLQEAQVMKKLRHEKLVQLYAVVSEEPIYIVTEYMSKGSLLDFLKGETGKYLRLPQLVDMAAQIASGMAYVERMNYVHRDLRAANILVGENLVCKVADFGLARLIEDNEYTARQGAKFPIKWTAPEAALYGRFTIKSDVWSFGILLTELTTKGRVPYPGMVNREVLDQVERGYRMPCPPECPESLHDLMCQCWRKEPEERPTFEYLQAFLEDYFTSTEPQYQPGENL
# T33 sequence (Q9BUB5 whole entry): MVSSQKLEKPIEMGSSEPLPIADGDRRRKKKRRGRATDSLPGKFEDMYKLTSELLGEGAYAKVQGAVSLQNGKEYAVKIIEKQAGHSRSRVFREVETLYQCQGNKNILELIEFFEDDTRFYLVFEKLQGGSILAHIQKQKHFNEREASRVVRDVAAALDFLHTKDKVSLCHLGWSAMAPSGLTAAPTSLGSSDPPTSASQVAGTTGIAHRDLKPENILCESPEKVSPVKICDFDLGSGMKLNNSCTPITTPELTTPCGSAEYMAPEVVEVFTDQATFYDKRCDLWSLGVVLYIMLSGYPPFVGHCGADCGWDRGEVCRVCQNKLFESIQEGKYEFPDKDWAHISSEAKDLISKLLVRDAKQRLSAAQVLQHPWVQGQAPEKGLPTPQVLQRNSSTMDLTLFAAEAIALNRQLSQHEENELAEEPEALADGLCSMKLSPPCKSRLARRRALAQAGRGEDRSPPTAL
# T10 sequence (P07949 29-1114): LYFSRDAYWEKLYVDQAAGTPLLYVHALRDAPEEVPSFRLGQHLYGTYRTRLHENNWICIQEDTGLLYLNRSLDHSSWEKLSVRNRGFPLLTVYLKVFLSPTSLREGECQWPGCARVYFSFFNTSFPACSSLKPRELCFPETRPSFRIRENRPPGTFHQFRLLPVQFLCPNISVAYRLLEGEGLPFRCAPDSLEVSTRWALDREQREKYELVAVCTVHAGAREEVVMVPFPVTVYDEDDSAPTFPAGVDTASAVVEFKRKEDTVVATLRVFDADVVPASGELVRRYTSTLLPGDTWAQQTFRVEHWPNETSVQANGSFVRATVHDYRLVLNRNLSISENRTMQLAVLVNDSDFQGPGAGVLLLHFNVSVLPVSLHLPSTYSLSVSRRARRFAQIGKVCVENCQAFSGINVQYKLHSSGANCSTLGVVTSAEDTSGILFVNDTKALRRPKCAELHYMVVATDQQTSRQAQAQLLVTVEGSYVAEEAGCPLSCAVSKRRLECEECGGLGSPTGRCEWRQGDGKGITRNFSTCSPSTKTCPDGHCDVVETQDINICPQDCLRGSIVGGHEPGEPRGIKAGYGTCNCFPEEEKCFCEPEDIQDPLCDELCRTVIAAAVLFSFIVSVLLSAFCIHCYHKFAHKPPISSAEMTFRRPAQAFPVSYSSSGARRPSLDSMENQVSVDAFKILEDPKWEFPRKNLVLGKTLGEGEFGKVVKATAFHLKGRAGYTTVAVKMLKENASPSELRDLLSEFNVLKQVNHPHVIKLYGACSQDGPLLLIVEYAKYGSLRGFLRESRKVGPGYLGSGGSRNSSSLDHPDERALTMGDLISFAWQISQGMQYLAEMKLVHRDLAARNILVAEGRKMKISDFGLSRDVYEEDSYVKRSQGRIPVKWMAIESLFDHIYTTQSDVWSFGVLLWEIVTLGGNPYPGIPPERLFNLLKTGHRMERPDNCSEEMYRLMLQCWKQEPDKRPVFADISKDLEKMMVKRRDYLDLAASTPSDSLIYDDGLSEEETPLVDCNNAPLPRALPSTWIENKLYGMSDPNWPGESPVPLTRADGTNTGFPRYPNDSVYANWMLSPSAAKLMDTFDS
# T13 sequence (Q00526 whole entry): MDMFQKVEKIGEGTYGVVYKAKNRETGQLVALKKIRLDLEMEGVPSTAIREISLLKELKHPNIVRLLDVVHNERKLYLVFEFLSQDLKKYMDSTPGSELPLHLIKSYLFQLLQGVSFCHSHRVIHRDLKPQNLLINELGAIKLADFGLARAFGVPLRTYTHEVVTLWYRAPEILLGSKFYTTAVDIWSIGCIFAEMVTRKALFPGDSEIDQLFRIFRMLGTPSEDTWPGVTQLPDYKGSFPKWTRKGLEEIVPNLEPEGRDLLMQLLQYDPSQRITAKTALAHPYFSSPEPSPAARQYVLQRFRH
structure (smiles),measurement,setting,value
"COc1ccc2c3ccnc(C)c3n(CCN(C)C)c2c1.O=C(O)/C=C/C(=O)O [HTW_A_8 fumarate, 2-(7-methoxy-1-methyl-9H-pyrido[3,4-b]indol-9-yl)-N,N-dimethylethan-1-amine Fumarate Salt (2:3)]",remaining binding at 10 µM,MAP3K4,100%
same,remaining binding at 10 µM,KIT,100%
same,remaining binding at 10 µM,IKK-beta,100%
same,remaining binding at 10 µM,PKAC-alpha,97%
same,remaining binding at 10 µM,ADCK3,100%
same,remaining binding at 10 µM,ALK,79%
same,remaining binding at 10 µM,YANK3,94%
same,remaining binding at 10 µM,ERBB4,100%
same,remaining binding at 10 µM,RIOK2,83%
same,remaining binding at 10 µM,RET,95%
same,remaining binding at 10 µM,p38-alpha,100%
same,remaining binding at 10 µM,DYRK1B,10%
same,remaining binding at 10 µM,CDK3,91%
same,remaining binding at 10 µM,PAK4,100%
same,remaining binding at 10 µM,CSF1R,98%
same,remaining binding at 10 µM,MAPKAPK2,99%
same,remaining binding at 10 µM,BRAF(V600E),100%
same,remaining binding at 10 µM,TRKA,93%
same,remaining binding at 10 µM,MET,100%
same,remaining binding at 10 µM,PLK1,100%
same,remaining binding at 10 µM,MEK2,82%
same,remaining binding at 10 µM,PDPK1,76%
same,remaining binding at 10 µM,PCTK1,96%
same,remaining binding at 10 µM,PIK3C2B,100%
same,remaining binding at 10 µM,[1],97%
same,remaining binding at 10 µM,PIK3CA,100%
same,remaining binding at 10 µM,CDK7,15%
same,remaining binding at 10 µM,SRC,99%
same,remaining binding at 10 µM,FGFR3,95%
same,remaining binding at 10 µM,JNK1,100%
same,remaining binding at 10 µM,[2],100%
same,remaining binding at 10 µM,IKK-alpha,100%
same,remaining binding at 10 µM,MKNK1,93%
same,remaining binding at 10 µM,EGFR,84%
same,remaining binding at 10 µM,PLK3,96%
same,remaining binding at 10 µM,FGFR2,95%
same,remaining binding at 10 µM,CHEK1,93%
same,remaining binding at 10 µM,TIE2,99%
